{"source": "BindingDB's records for doi:10.1007/s00044-010-9428-9", "about": "(n/a, 2011)", "data": [{"target": "T1, Peroxisome proliferator-activated receptor gamma (Homo sapiens, UniProt P37231)", "T1 sequence (P37231 whole entry)": "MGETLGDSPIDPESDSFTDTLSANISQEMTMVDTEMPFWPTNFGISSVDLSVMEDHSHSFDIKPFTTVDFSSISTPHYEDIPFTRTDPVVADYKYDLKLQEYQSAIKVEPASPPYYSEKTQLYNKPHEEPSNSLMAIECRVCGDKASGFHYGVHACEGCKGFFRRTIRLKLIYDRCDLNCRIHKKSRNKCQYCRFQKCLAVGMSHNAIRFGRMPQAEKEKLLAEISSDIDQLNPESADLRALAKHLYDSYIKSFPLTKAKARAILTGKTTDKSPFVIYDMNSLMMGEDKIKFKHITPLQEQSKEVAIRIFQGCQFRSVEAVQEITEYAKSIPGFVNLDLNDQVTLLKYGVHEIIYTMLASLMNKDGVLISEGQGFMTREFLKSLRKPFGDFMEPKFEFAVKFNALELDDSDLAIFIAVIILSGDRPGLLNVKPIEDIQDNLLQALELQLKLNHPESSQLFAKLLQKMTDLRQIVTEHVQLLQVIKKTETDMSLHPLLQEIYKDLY", "test": "Transactivation activity at Homo sapiens (human) PPARgamma", "units": {"EC50": "nM"}, "values": [{"molecule": "O=c1[nH]c(O)c(Cc2ccc3c(c2)CC[C@H](Cc2ccccc2)O3)s1", "note": "[5-((R)-2-Benzyl-chroman-6-ylmethyl)-thiazolidine-2,4-dione]", "EC50": 1000}, {"molecule": "CCCc1cc(Oc2ccccc2)ccc1OCCCCOc1ccc(-c2sc(=O)[nH]c2O)cc1", "note": "[5-{4-[4-(4-Phenoxy-2-propyl-phenoxy)-butoxy]-phenyl}-thiazolidine-2,4-dione]", "EC50": 1000}]}, {"target": "T1, Peroxisome proliferator-activated receptor gamma", "test": "Transactivation activity at PPARgamma (unknown origin)", "units": {"EC50": "nM"}, "values": [{"molecule": "C/C(=N\\OCCOc1ccc(Cc2sc(=O)[nH]c2O)cc1)c1ccc(-c2ccncc2)cc1", "note": "[5-(4-{2-[1-(4-Pyridin-4-yl-phenyl)-eth-(E)-ylideneaminooxy]-ethoxy}-benzyl)-thiazolidine-2,4-dione]", "EC50": 1600}, {"molecule": "CC/C(=N\\OCCOc1ccc(Cc2sc(=O)[nH]c2O)cc1)c1ccc(-c2ccccc2)cc1", "note": "[5-(4-{2-[1-Biphenyl-4-yl-prop-(E)-ylideneaminooxy]-ethoxy}-benzyl)-thiazolidine-2,4-dione]", "EC50": 1600}, {"molecule": "C/C(=N\\OCCOc1ccc(Cc2sc(=O)[nH]c2O)cc1)c1ccccn1", "note": "[5-(4-{2-[1-Pyridin-2-yl-eth-(E)-ylideneaminooxy]-ethoxy}-benzyl)-thiazolidine-2,4-dione]", "EC50": 2800}, {"molecule": "C/C(=N\\OCCOc1ccc(Cc2sc(=O)[nH]c2O)cc1)c1cccnc1", "note": "[5-(4-{2-[1-Pyridin-3-yl-eth-(E)-ylideneaminooxy]-ethoxy}-benzyl)-thiazolidine-2,4-dione]", "EC50": 2800}]}]}
